Assay results published in patent publication US10875891B2, “Short synthetic peptide and uses thereof” (MacKay Memorial Hospital, priority 2018, dated 2020).
“Also recorded” adds a separate entry of the source. Where no end group is shown, it is not given here.

Tests used:
[1] = tested on: Murine psoriasis vulgaris-like skin inflammation model; experiment: IMQ-induced psoriasis vulgaris-like skin inflammation model, keratinocyte proliferation by BrdU incorporation; assay type: in vivo, BALB/c mice
Protocol: (§1) BALB/c mice (8-weeks old females; n=42) were used in this model system. […] Accordingly, in this model, each BALB/c mice received a daily topical dose (62.5 mg) of commercially available IMQ cream (Imiquimod Cream 5% w/w, Aldara™) on the shaved back and the right ear for 6 consecutive days (n=6); whereas the control mice (normal group) were treated with a control cream (n=6). For treatment, each test peptide was mixed with IMQ cream to give a concentration of 25 μM (n=6 per group). Keratinocyte proliferation was determined by BrdU incorporation. BrdU (Sigma-Aldrich) was reconstituted in DMSO as a stock solution of 80 mM. 10 μl of BrdU mixed with 90 μl of PBS was intraperitoneally injected into each mouse for 24 hr prior to euthanasia.
(§2) Slides were blocked with 10% goat serum for 60 min and then incubated with primary antibody against BrdU (1:50 dilution; GTX42641) for 3 hr at RT. The slides were then incubated with peroxidase-labeled donkey immunoglobulin for 30 min and then incubated with chromogen substrate (3,3′-diaminobenzidine) for 2 min before counterstaining with hematoxylin. Quantification was estimated based on high quality images (1208×960 pixels buffer) captured using a Nikon Eclipse 80i light microscope.

[2] = tested on: Murine dry eye model; experiment: Dry eye animal model, fluorescein eye stain test for corneal injuries; assay type: in vivo, C57BL/6 mice; settings: peptide 50 μM topically three times a day for 4 days
Protocol: (§3) C57BL/6 mice (7-8 weeks old, each weighted about 18 to 25 g) were used in this model system. All mice were maintained in the animal facility in accordance with the procedures approved by Mackay Memorial Hospital Review Board (Taiwan, R.O. C.). All animal experimental procedures were conducted according to the ARVO Statement for the Use of Animals in Ophthalmic and Vision Research.
(§4) Dry eyes were induced by placing mice in a controlled environment chamber (CEC) for 14 days in accordance with procedures previously described by Barabino et al (IVOS (2005) 46(8), 2766-2771). Mice placed in the CEC were exposed to a condition, in which relative humidity (RH) was maintained at <25%, temperature at 20-22° C., and airflow at about 15 L/min, for 12 hours per day. Control mice were kept in a normal environment (RH>50%, no air flow, temperature of 20-22° C.) for the same duration.
(§5) A common artificial tear formulation, 1% carboxymethylcelllulose (CMC) dissolved in balanced salt solution (BSS) was used as the peptide vehicle. Peptide (50 μM) or 1% CMC vehicle was topically administered to eyes three times a day, for 4 days.
Corneal epithelial injury was determined by staining with topical fluorescein (100 mg/ml or 10%; FLUORESCITE™, Alcon Laboratories). For dosing, topical fluorescein (0.6 μL of 0.5% sodium fluorescein dissolved in 4.4 μL BSS per eye) was applied via a micro-pipette to the lateral canthus for 15 sec. Corneal fluorescein staining was examined with a slit-lamp biomicroscope under cobalt blue light and photographed with a digital camera. Data is presented as mean±SD. Dye staining of the cornea was scored in a blinded manner as follows: score 0 for no punctuate staining; score 1 when less than one third of the cornea was stained; score 2 when two thirds or less was stained; and score 3 when more than two thirds was stained.

[3] = tested on: RPMI8226 cells; experiment: Annexin V/propidium iodide apoptosis by flow cytometry; assay type: cell-based, human; settings: treatment for 24 hr; control untreated cells less than 15%; FIG. 6
Protocol: Annexin V/propidium iodide (PI) staining was performed using flow cytometry according to the manufacturer's guidelines (Annexin V-FITC Apoptosis Detection kit; Roche). Briefly, 0.5×10^6 cells were washed in ice-cold PBS without Ca^2+ or Mg^2+ (Life Technologies). The cells were then re-suspended in 100 μl of binding buffer and incubated with 5.0 μl of PI and 2.0 μl of annexin V-fluorescein isothiocynate for 15 min in the dark at room temperature. Flow cytometric analysis was immediately performed using a FACScalibur Instrument (Becton Dickinson).

[4] = tested on: myeloma RPMI 8226 cell; experiment: MTT assay, cell viability; assay type: cell-based, human; settings: 20 μM peptide, 24 h, serum-free RPMI1640; FIGS. 1-2
Protocol: The multiple myeloma line RPMI8226 or […] Raw264.7 macrophages were cultivated in complex medium (RPMI1640) supplemented with 10% (vol/vol) heat-inactivated fetal calf serum (Invitrogen), 50 μg/mL penicillin, 50 μg/mL streptomycin, and 2 mM L-glutamine at 37° C. in a 5% CO2 atmosphere
RPMI8226 cells or U266 cells were cultured in serum-free RPMI1640 medium for 24 h, and then cells seeded in 48-well culture plates (3×10^5 cells/well) and cultured in 0.5 ml fresh serum-free RPMI1640 medium containing 20 μM peptide for further 24 h. The cell viability was determined by the MTT assay.
50 μL of the MTT stock solution (5 mg MTT dissolved in 1 ml of sterile PBS) was added to each well, and 50 μL of the MTT stock solution was added to 500 μL of medium alone and used as a negative control. Each sample was Incubates at 37° C. for 4 hours. Aliquots (450 μl) from each sample were taken to a new well of 48-well culture plate, adding 100 μL DMSO, mixing thoroughly using the pipette and reacted at 37° C. for 20 min and absorbance was measured at 570 nm.

[5] = tested on: Murine dry eye model; experiment: Dry eye animal model, tear production by phenol red thread test; assay type: in vivo, C57BL/6 mice; settings: treated for 4 days; P<0.01 versus vehicle treatment; FIG. 4
Protocol: as §3, §4, §5
Tear production was measured with phenol red-impregnated cotton threads (Zone-Quick; Oasis, Glendora, Calif.). The validity of this test in mice was performed as previously described (Dursun et al., Invest Ophthalmol Vis Sci. 2002; 43:632-8). The threads were held with jeweler forceps and placed in the lateral canthus for 60 seconds. The tear production expressed in millimeters of thread wet by the tear and turned red.

[6] = tested on: Murine psoriasis vulgaris-like skin inflammation model; experiment: IMQ-induced psoriasis vulgaris-like skin inflammation model, skin appearance; assay type: in vivo, BALB/c mice; settings: 25 μM with IMQ cream, topical daily, six consecutive days; FIG. 7
Protocol: as §1

[7] = tested on: Murine psoriasis vulgaris-like skin inflammation model; experiment: IMQ-induced psoriasis vulgaris-like skin inflammation model, H&E histology of back skin; assay type: in vivo, BALB/c mice
Protocol: as §1
Back skin of the mouse was fixed overnight in 4% paraformaldehyde, dehydrated with graded ethanol series, and paraffinized. Fixed samples were deparaffinized in xylene and rehydrated in a graded series of ethanol. Tissues were sliced into 5-μm sections. General histology was performed using hematoxylin and eosin (H&E) (Merck, Rayway, N.J., USA).
as §2

[8] = tested on: U266 cells; experiment: Trypan blue exclusion assay; assay type: cell-based, human; settings: vs solvent (DMSO) 8.7±1.1, FIG. 5
Protocol: (§6) RPMI8226 cells or U266 cells were cultured in serum-free RPMI1640 medium for 24 h, and then cells seeded in 48-well culture plates (3×10^5 cells/well) and cultured in 0.5 ml fresh serum-free RPMI1640 medium containing 20 μM peptide for further 24 h. The cell viability was determined by the MTT assay. The cells were examined under a microscope with the aid of a hemacytometer, in which 0.1 mL of trypan blue stock solution (0.4% solution of trypan blue in isotonic salt buffer solution, pH 7.2) was added to 1 mL cell suspension, and loaded therein. The number of blue staining cells (considered non-viable) and the number of total cells were respectively counted. Cell viability should be at least 95% for healthy log-phase cultures.

[9] = tested on: RPMI8226 cells; experiment: Trypan blue exclusion assay; assay type: cell-based, human; settings: vs solvent (DMSO) 7.5±1.3, FIG. 5
Protocol: as §6, with “The multiple myeloma line RPMI8226 or […] Raw264.7 macrophages were cultivated in complex medium (RPMI1640) supplemented with 10% (vol/vol) heat-inactivated fetal calf serum (Invitrogen), 50 μg/mL penicillin, 50 μg/mL streptomycin, and 2 mM L-glutamine at 37° C. in a 5% CO2 atmosphere RPMI8226” for “RPMI8226”

## NH2-Asp-Ile-Thr-Tyr-Val-Arg-Leu-Lys-Phe-COOH (DITYVRLKF; not fully specified (N-terminus, C-terminus); printed as NH2-Asp-Ile-Thr-Tyr-Val-Arg-Leu-Lys-Phe-COOH) [9-mer, short synthetic peptide …]
[1]; 25 μM with IMQ cream, day 6, IMQ control 24.5±2.0, FIG. 9 panel B
  hyperproliferation of keratinocytes, BrdU-positive cells in the epidermis (labeling index): 8.3±1.4%
[1]; day 6 after IMQ treatment, FIG. 9 panel A
  location of BrdU-positive cells in the epidermis: restrict to the basal layer of the epidermis
[2]; FIG. 3 panel B
  reduction in mean corneal fluorescein staining score compared with vehicle treated control mice: about 3 fold
[2]; vs vehicle
  corneal fluorescein stain (corneal damage), result in words: reduced significantly
[3]
  myeloma cells exhibiting apoptotic phosphatidylserine exposure (annexin-V staining): approximately 54%
[4]
  myeloma RPMI 8226 cell viability (MTT assay): successfully suppressed myeloma RPMI 8226 cell viability; also recorded: effective in suppressing myeloma cell viability
[5]
  tear volume (tear production): significantly increased
[6]
  skin inflammation and desquamation: reduced level of dosal skin inflammation and desquamation
[7]; 25 μM with IMQ cream, 6 days, IMQ control 122±10.5, FIG. 8 panel B
  acanthosis, quantified epidermal thickness: 39.2±2.7 μm
[7]; vs IMQ-treated skin sections, FIG. 8 panel A
  acanthosis and desquamation in skin sections (H&E staining), result in words: decrease in acanthosis and less desquamation
[8]
  cell viability by trypan blue assay: 47.0±4.6
[9]
  cell viability by trypan blue assay: 59.7±4.5
